# According to patent US20030207813A1, “Retroviral protease inhibitor combinations” (priority 1995, published 2003):
# Columns and labels:
# NL4(R8Q,M46I) = assay: Viral isolate resistance assay per Markowitz et al., NL4(R8Q,M46I); format: cell-based, HIV-1; details: Human immunodeficiency virus 1, read-out: Virus Isolate (EC50 nM) NL4(R8O, M46I)
# Description: (§1) RF represents the HIV-1 strain HIV-LRF and RFR represents a mixture of resistant strains obtained by selection of RF against the compound of Example 1. RFR comprises a mixture of viral strains having protease genotypes of G48V (14/40 clones); G48V, V82A (18/40 clones); G48V, L90S (2/40 clones); G48V, 154T, V82A (1/40 clones); G48M (1/40 clones); G48V, Q61H (1/40 clones); V13I, G48V (1/40 clones); G48V, F53L, V82A (1/40 clones); and G48V, V82A, C95Y (1/40 clones). RFR2 represents a mixture of resistant strains obtained by cloning RFR by three rounds of growth at limiting dilution. RFR2 comprises a mixture of viral strains having protease genotypes of G48V, V82A (13/15 clones); G17E, G48V, V82A (1/15 clones); and G48V, V82A, N37D, N88D (1/15 clones). RFRR represents a mixture of resistant strains obtained by selection of RF against the compounds of Examples 1 and 2 and then cloning by three rounds of growth at limiting dilution. RFRR comprises a mixture of viral strains having protease genotypes of G48V, 154T, L63P, V82A (7/9 clones); G48V, 154T, L63P, V82A, N88S (1/9 clones); and G48V, 154T, L63P, G73M, V82A (1/9 clones). SF162 represents the HIV-1 strain SF-162 and SF162R represents a mixture of resistant strains obtained by selection of SF162 against the compound of Example 1. SF162R comprises a mixture of viral strains having protease genotypes of M461, F53L, L63P, A71V, N88D (2/3 clones); and M46I, F53L, L63P, A71V, N88D, Q92R (1/3 clones). 89-959 represents the HIV-1 strain 89-959 and 89-959R represents a mixture of resistant strains obtained by selection of 89-959 against the compound of Example 2. 89-959R comprises a mixture of viral strains having protease genotypes of N88S (4/5 clones); and D25N, T26A, D30N, D37N, R41K, G73D, R87K, N88S (1/4 clones). NL4 represents the HIV-1 strain HIV-1NL4-3. NL4(G48V) represents a strain having a synthetically generated site-directed mutation in the protease from glycine to valine at amino acid position number 48. […]
# NL4(G48V) = assay: Viral isolate resistance assay per Markowitz et al., NL4(G48V); format: cell-based, HIV-1; details: Human immunodeficiency virus 1, Table 7
# Description: (§2) RF represents the HIV-1 strain HIV-LRF and RFR represents a mixture of resistant strains obtained by selection of RF against the compound of Example 1. […] RFR2 represents a mixture of resistant strains obtained by cloning RFR by three rounds of growth at limiting dilution. […] RFRR represents a mixture of resistant strains obtained by selection of RF against the compounds of Examples 1 and 2 and then cloning by three rounds of growth at limiting dilution. […] SF162 represents the HIV-1 strain SF-162 and SF162R represents a mixture of resistant strains obtained by selection of SF162 against the compound of Example 1. […] 89-959 represents the HIV-1 strain 89-959 and 89-959R represents a mixture of resistant strains obtained by selection of 89-959 against the compound of Example 2. […] NL4 represents the HIV-1 strain HIV-1NL4-3. NL4(G48V) represents a strain having a synthetically generated site-directed mutation in the protease from glycine to valine at amino acid position number 48. NL4(I84V) represents a strain having a synthetically generated site-directed mutation in the protease from isoleucine to valine at amino acid position number 84. NL4(R8Q,M46I) represents a strain having synthetically generated site-directed mutations in the protease from arginine to glutamine at amino acid position number 8 and methionine to isoleucine at amino acid position number 46.
# NL4(538/P7-AG) = assay: Viral isolate resistance assay per Markowitz et al., NL4(538/P7-AG); format: cell-based, HIV-1; details: Human immunodeficiency virus 1; Table 10; NL4(P22-538) selected against Example 12, 7 passages
# Description: as §1, with “48. NL4(I84V) represents a strain having a synthetically generated site-directed mutation in the protease from isoleucine to valine at amino acid position number 84. NL4(R8Q,M46I) represents a strain having synthetically generated site-directed mutations in the protease from arginine to glutamine at amino acid position number 8 and methionine to isoleucine at amino acid position number 46. NL4(P22-538) represents a mixture of resistant strains obtained by selection of HIV-1NL4-3 against the compound of Example 10 after 22 passages comprising protease genotypes M46I, L63P, A71V, V82F, I84V (4/10); M46I, L63P, V82F, I84V (3/10); and M46I, A71V, V82F, I84V (3/10). NL4(P37-538) represents resistant strains obtained by selection of HIV-1NL4-3 against the compound of Example 10 after 37 passages comprising protease genotype M46I, L63P, A71V, 184A. NL4(538/524) represents resistant strains obtained by selection of NL4(P22-538) against the compound of Example 5 after 24 passages comprising protease genotype M46I, L63P, A71V, 184A. NL4(538/P7-AG) represents a mixture of resistant strains obtained by selection of NL4(P22-538) against the compound of Example 12 after 7 passages comprising protease genotypes M46I, L63P, A71V, 184A; and V321, V82I. NL4(538/P24-AG) represents resistant strains obtained by selection of NL4(P22-538) against the compound of Example 12 after 24 passages comprising protease genotype M46I, L63P, A71V, 184A.” for “48.”
# NL4(538/524) = assay: Viral isolate resistance assay per Markowitz et al., NL4(538/524); format: cell-based, HIV-1; details: Human immunodeficiency virus 1; Table 10; NL4(P22-538) selected against Example 5, 24 passages
# Description: as §1, with “48. NL4(I84V) represents a strain having a synthetically generated site-directed mutation in the protease from isoleucine to valine at amino acid position number 84. NL4(R8Q,M46I) represents a strain having synthetically generated site-directed mutations in the protease from arginine to glutamine at amino acid position number 8 and methionine to isoleucine at amino acid position number 46. NL4(P22-538) represents a mixture of resistant strains obtained by selection of HIV-1NL4-3 against the compound of Example 10 after 22 passages comprising protease genotypes M46I, L63P, A71V, V82F, I84V (4/10); M46I, L63P, V82F, I84V (3/10); and M46I, A71V, V82F, I84V (3/10). NL4(P37-538) represents resistant strains obtained by selection of HIV-1NL4-3 against the compound of Example 10 after 37 passages comprising protease genotype M46I, L63P, A71V, 184A. NL4(538/524) represents resistant strains obtained by selection of NL4(P22-538) against the compound of Example 5 after 24 passages comprising protease genotype M46I, L63P, A71V, 184A. NL4(538/P7-AG) represents a mixture of resistant strains obtained by selection of NL4(P22-538) against the compound of Example 12 after 7 passages comprising protease genotypes M46I, L63P, A71V, 184A; and V321, V82I. NL4(538/P24-AG) represents resistant strains obtained by selection of NL4(P22-538) against the compound of Example 12 after 24 passages comprising protease genotype M46I, L63P, A71V, 184A.” for “48.”
# NL4(P34-003) = assay: Viral isolate resistance assay per Markowitz et al., NL4(P34-003); format: cell-based, HIV-1; details: Human immunodeficiency virus 1; Table 11; selected against Example 9, 34 passages
# Description: as §1
# NLA(P19-003) = assay: Viral isolate resistance assay per Markowitz et al., NLA(P19-003); format: cell-based, HIV-1; details: Human immunodeficiency virus 1, read-out: Virus Isolate (EC50 nM) NLA(P19-003)
# Description: as §1
# HIV-1NL4-3 = assay: microbe, parasite or virus in culture; format: cell-based; details: Human immunodeficiency virus 1, NL4
# Description: as §2
# NL4(I84V) = assay: Viral isolate resistance assay per Markowitz et al., NL4(I84V); format: cell-based, HIV-1; details: Human immunodeficiency virus 1, Table 7
# Description: as §2
# NL4(P37-538) = assay: Viral isolate resistance assay per Markowitz et al., NL4(P37-538); format: cell-based, HIV-1; details: Human immunodeficiency virus 1; Table 9; selected against Example 10, 37 passages; read-out: Virus Isolate (EC50 nM) NL4(P37-538)
# Description: (§3) RF represents the HIV-1 strain HIV-LRF and RFR represents a mixture of resistant strains obtained by selection of RF against the compound of Example 1. RFR comprises a mixture of viral strains having protease genotypes of G48V (14/40 clones); G48V, V82A (18/40 clones); G48V, L90S (2/40 clones); G48V, 154T, V82A (1/40 clones); G48M (1/40 clones); G48V, Q61H (1/40 clones); V13I, G48V (1/40 clones); G48V, F53L, V82A (1/40 clones); and G48V, V82A, C95Y (1/40 clones). RFR2 represents a mixture of resistant strains obtained by cloning RFR by three rounds of growth at limiting dilution. RFR2 comprises a mixture of viral strains having protease genotypes of G48V, V82A (13/15 clones); G17E, G48V, V82A (1/15 clones); and G48V, V82A, N37D, N88D (1/15 clones). RFRR represents a mixture of resistant strains obtained by selection of RF against the compounds of Examples 1 and 2 and then cloning by three rounds of growth at limiting dilution. RFRR comprises a mixture of viral strains having protease genotypes of G48V, 154T, L63P, V82A (7/9 clones); G48V, 154T, L63P, V82A, N88S (1/9 clones); and G48V, 154T, L63P, G73M, V82A (1/9 clones). SF162 represents the HIV-1 strain SF-162 and SF162R represents a mixture of resistant strains obtained by selection of SF162 against the compound of Example 1. SF162R comprises a mixture of viral strains having protease genotypes of M461, F53L, L63P, A71V, N88D (2/3 clones); and M46I, F53L, L63P, A71V, N88D, Q92R (1/3 clones). 89-959 represents the HIV-1 strain 89-959 and 89-959R represents a mixture of resistant strains obtained by selection of 89-959 against the compound of Example 2. 89-959R comprises a mixture of viral strains having protease genotypes of N88S (4/5 clones); and D25N, T26A, D30N, D37N, R41K, G73D, R87K, N88S (1/4 clones). NL4 represents the HIV-1 strain HIV-1NL4-3. NL4(G48V) represents a strain having a synthetically generated site-directed mutation in the protease from glycine to valine at amino acid position number 48. NL4(I84V) represents a strain having a synthetically generated site-directed mutation in the protease from isoleucine to valine at amino acid position number 84. NL4(R8Q,M46I) represents a strain having synthetically generated site-directed mutations in the protease from arginine to glutamine at amino acid position number 8 and methionine to isoleucine at amino acid position number 46. NL4(P22-538) represents a mixture of resistant strains obtained by selection of HIV-1NL4-3 against the compound of Example 10 after 22 passages comprising protease genotypes M46I, L63P, A71V, V82F, I84V (4/10); M46I, L63P, V82F, I84V (3/10); and M46I, A71V, V82F, I84V (3/10). NL4(P37-538) represents resistant strains obtained by selection of HIV-1NL4-3 against the compound of Example 10 after 37 passages comprising protease genotype M46I, L63P, A71V, 184A. NL4(538/524) represents resistant strains obtained by selection of NL4(P22-538) against the compound of Example 5 after 24 passages comprising protease genotype M46I, L63P, A71V, 184A. NL4(538/P7-AG) represents a mixture of resistant strains obtained by selection of NL4(P22-538) against the compound of Example 12 after 7 passages comprising protease genotypes M46I, L63P, A71V, 184A; and V321, V82I. NL4(538/P24-AG) represents resistant strains obtained by selection of NL4(P22-538) against the compound of Example 12 after 24 passages comprising protease genotype M46I, L63P, A71V, 184A. NLA(P19-003) represents resistant strains obtained by selection of HIV-1^NL4-3 against the compound of Example 9 after 19 passages comprising protease genotype R8K, M46I. NL4(P34-003) represents resistant strains obtained by selection of HIV-1^NL4-3 against the compound of Example 9 after 34 passages comprising protease genotype R8K, M46I, L63P, A71V, L90M.
# The viral isolate resistance results summarized in Tables 7-11 were generated according to the assay procedures described by Markowitz et al., Journal of Virology, vol. […]
# NL4(P22-538) = assay: Viral isolate resistance assay per Markowitz et al., NL4(P22-538); format: cell-based, HIV-1; details: Human immunodeficiency virus 1; Table 9; selected against Example 10, 22 passages; read-out: Virus Isolate (EC50 nM) NL4(P22-538)
# Description: as §3, with “NLA(P19-003) represents resistant strains obtained by selection of HIV-1^NL4-3 against the compound of Example 9 after 19 passages comprising protease genotype R8K, M46I. NL4(P34-003) represents resistant strains obtained by selection of HIV-1^NL4-3 against the compound of Example 9 after 34 passages comprising protease genotype R8K, M46I, L63P, A71V, L90M.” left out
# NL4(538/P24-AG) = assay: Viral isolate resistance assay per Markowitz et al., NL4(538/P24-AG); format: cell-based, HIV-1; details: Human immunodeficiency virus 1; Table 10; NL4(P22-538) selected against Example 12, 24 passages
# Description: as §3, with “NLA(P19-003) represents resistant strains obtained by selection of HIV-1^NL4-3 against the compound of Example 9 after 19 passages comprising protease genotype R8K, M46I. NL4(P34-003) represents resistant strains obtained by selection of HIV-1^NL4-3 against the compound of Example 9 after 34 passages comprising protease genotype R8K, M46I, L63P, A71V, L90M.” left out
structure (smiles),measurement,setting,value
"Nc1cccc(CN2C(=O)N(Cc3cccc(N)c3)[C@H](Cc3ccccc3)[C@H](O)[C@@H](O)[C@H]2Cc2ccccc2)c1 [Example 13, [4R-(4α,5α,6β,7β)]-1,3-bis[(3-aminophenyl)methyl]hexahydro-5,6-dihydroxy-4,7-bis(phenylmethyl)-2H-1,3-diazepin-2-one]",EC50,"NL4(R8Q,M46I)",750 nM
same,EC90,NL4(G48V),1000 nM
same,EC50,NL4(538/P7-AG),> 31200 nM
same,EC50,NL4(538/524),> 31200 nM
same,EC50,NL4(P34-003),1250 nM
same,EC50,NLA(P19-003),1250 nM
same,EC90,"HIV-1NL4-3; Table 7, EC90, read-out: Virus Isolate (EC90 nM) NL4",250 nM
same,EC50,"HIV-1NL4-3; Table 8, read-out: Virus Isolate (EC50 nM) NL4",250 nM
same,EC90,NL4(I84V),6250 nM
same,EC50,NL4(P37-538),> 31200 nM
same,EC50,NL4(P22-538),5000 nM
same,EC50,NL4(538/P24-AG),> 31200 nM
